Reference: patent publication US20020082420A1, “Bicyclic heterocycles, pharmaceutical compositions containing them, their use, and processes for preparing them” (priority 2000, published 2002)

How the values were obtained:
human EGF-R = target: T1, human EGF-R (Homo sapiens, UniProt P00533); experiment: Inhibition of EGF-dependent proliferation of F/L-HERc cells (Cell Titer 96 assay); format: cell-based; conditions: F/L-HERc cells (murine IL-3-dependent line expressing human EGF-R), stimulated with EGF 20 ng/ml, 48 hours at 37° C.
T1 construct: expressed in transfected cells; host or cells: F/L-HERc cells (murine IL-3-dependent FDC-P1 line transduced with an LXSN retroviral vector carrying human EGF-R cDNA; packaging line GP+E86)
T1 sequence (P00533 25-1210): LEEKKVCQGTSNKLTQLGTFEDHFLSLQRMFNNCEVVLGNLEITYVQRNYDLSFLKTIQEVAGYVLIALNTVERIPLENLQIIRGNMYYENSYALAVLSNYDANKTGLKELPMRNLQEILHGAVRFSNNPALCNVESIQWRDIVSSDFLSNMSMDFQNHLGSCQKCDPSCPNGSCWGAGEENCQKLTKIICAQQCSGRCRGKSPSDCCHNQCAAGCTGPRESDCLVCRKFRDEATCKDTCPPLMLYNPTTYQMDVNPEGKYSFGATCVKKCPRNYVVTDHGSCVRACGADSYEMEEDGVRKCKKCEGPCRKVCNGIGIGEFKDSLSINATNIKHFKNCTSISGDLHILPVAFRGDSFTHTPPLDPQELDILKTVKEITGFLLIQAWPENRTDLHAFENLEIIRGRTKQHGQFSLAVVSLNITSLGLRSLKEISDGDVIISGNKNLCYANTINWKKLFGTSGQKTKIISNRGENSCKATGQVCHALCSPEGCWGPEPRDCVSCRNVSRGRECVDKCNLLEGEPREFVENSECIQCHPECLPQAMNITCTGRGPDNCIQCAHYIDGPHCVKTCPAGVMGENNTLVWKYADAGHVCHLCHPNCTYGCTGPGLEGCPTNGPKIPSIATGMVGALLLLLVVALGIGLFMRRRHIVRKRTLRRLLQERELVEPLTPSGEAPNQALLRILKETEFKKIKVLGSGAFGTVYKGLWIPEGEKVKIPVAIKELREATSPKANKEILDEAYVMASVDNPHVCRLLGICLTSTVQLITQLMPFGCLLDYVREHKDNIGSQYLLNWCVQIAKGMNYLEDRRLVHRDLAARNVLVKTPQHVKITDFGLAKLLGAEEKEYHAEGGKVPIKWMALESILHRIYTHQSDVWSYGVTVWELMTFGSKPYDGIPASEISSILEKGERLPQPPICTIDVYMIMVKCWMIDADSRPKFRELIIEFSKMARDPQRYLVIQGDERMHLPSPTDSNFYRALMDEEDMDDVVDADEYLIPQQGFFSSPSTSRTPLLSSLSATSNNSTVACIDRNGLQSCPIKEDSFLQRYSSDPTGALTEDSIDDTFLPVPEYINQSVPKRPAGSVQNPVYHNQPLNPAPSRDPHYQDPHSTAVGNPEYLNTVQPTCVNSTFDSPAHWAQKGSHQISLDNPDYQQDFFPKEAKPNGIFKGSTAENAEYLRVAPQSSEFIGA
From the text: A cell line of murine origin dependent on interleukin-3-(IL-3) which was genetically modified to express functional human EGF-R was used here. The proliferation of these cells known as F/L-HERc can therefore be stimulated either by murine IL-3 or by EGF (cf T. von Ruiden et al., EMBO J. 7, 2749-2756 (1988) and J. H. Pierce et al., Science 239, 628-631 (1988)).
The starting material used for the F/L-HERc cells was the cell line FDC-P1, the production of which has been described by T. M. Dexter et al., J. Exp. Med. 152. 1036-1047 (1980). Alternatively, however, other growth-factor-dependent cells may also be used (cf., e.g., J.H. Pierce et al., Science 239, 628-631 (1988); H. Shibuya et al., Cell 70, 57-67 (1992); and W. S. Alexander et al., EMBO J. 10, 3683-3691 (1991)). For expressing the human EGF-R cDNA (cf A. Ullrich et al., Nature 309, 418-425 (1984)) recombinant retroviruses were used as described by T. von Ruiden et al., EMBO J. 7, 2749-2756 (1988), except that the retroviral vector LXSN (cf A. D. Miller et al., BioTechniques 7, 980-990 (1989)) was used for the expression of the EGF-R cDNA and the line GP+E86 (cf D. Markowitz et al., J. Virol. 62, 1120-1124 (1988)) was used as the packaging cell.
The test was performed as follows:
F/L-HERc cells were cultivated in RPMI/1640 medium (BioWhittaker), supplemented with 10% fetal calf serum (FCS, Boehringer Mannheim), 2 mM glutamine (BioWhittaker), standard antibiotics and 20 ng/ml of human EGF (Promega), at 37° C. and 5% CO2. In order to investigate the inhibitory activity of the compounds according to the invention, 1.5×10^4 cells per well were cultivated in triplicate in 96-well plates in the above medium (200 μl), the cell proliferation being stimulated with either EGF (20 ng/ml) or murine IL-3. The IL-3 used was obtained from culture supernatants of the cell line X63/0 mIL-3 (cf H. Karasuyama et al., Eur. J. Immunol. 18, 97-104 (1988)). The compounds according to the invention were dissolved in 100% dimethylsulfoxide (DMSO) and added to the cultures in various dilutions, the maximum DMSO concentration being 1%. The cultures were incubated for 48 hours at 37° C.
In order to determine the inhibitory activity of the compounds according to the invention the relative cell number was measured in O.D. units using the Cell Titer 96™ Aqueous Non-Radioactive Cell Proliferation Assay (Promega). The relative cell number was calculated as a percentage of the control (F/LHERc cells without inhibitor) and the concentration of active substance which inhibits the proliferation of the cells by 50% (IC50) was derived therefrom.

Structure (SMILES)	melting point	IC50 (human EGF-R)
CN(CC(=O)O)[C@H]1CC[C@H](Nc2ncc3ncnc(Nc4ccc(F)c(Cl)c4)c3n2)CC1 [1(3), 4-[(3-chloro-4-fluorophenyl)amino]-6-({trans-4-[N-(carboxymethyl)-N-methylamino]cyclohex-1-yl}amino)pyrimido[5,4-d]pyrimidine]	220 to 228 °C	0.32 µM
O=C(O)CCN1CCC(N2CCN(c3ncc4ncnc(Nc5ccc(F)c(Cl)c5)c4n3)CC2)CC1 [1(8), 4-[(3-chloro-4-fluorophenyl)amino]-6-{4-[1-(2-carboxyethyl)piperidin-4-yl]piperazin-1-yl}pyrimido[5,4-d]pyrimidine]	213 °C (dec.)	1.45 µM
O=C(O)CN1CCC(CCNc2ncc3ncnc(Nc4ccc(F)c(Cl)c4)c3n2)CC1 [1(9), 4-[(3-chloro-4-fluorophenyl)amino]-6-{2-[1-(carboxymethyl)piperidin-4-yl]ethylamino}pyrimido[5,4-d]pyrimidine]	246 to 249 °C (dec.)	0.82 µM
O=C(O)C1CCN(CCNc2ncc3ncnc(Nc4ccc(F)c(Cl)c4)c3n2)CC1 [1(10), 4-[(3-chloro-4-fluorophenyl)amino]-6-[2-(4-carboxypiperidin-1-yl)ethylamino]pyrimido [5,4-d]pyrimidine]	190 °C (dec.)	2.51 µM
CN(CCC(=O)O)C1CCN(c2ncc3ncnc(Nc4ccc(F)c(Cl)c4)c3n2)CC1 [1(11), 4-[(3-chloro-4-fluorophenyl)amino]-6-[4-[N-(2-carboxyethyl)-N-methylamino]piperidin-1-yl]pyrimido[5,4-d]pyrimidine]	139 to 165 °C (dec.)	2.32 µM
COC(=O)CN1CCC(Nc2ncc3ncnc(Nc4ccc(F)c(Cl)c4)c3n2)CC1 [2(1), 4-[(3-chloro-4-fluorophenyl)amino]-6-({1-[(methoxycarbonyl)methyl]piperidin-4-yl}amino)pyrimido [5,4-d]pyrimidine]	162 to 164 °C	0.015 µM
COC(=O)CN(C)[C@H]1CC[C@H](Nc2ncc3ncnc(Nc4ccc(F)c(Cl)c4)c3n2)CC1 [2(7), 4-[(3-chloro-4-fluorophenyl)amino]-6-[(trans-4-{N-[(methoxycarbonyl)methyl]-N-methylamino}cyclohex-1-yl)amino]pyrimido[5,4-d]pyrimidine]	131 to 134 °C	0.06 µM
CCOC(=O)CN1CCN(c2ncc3ncnc(Nc4ccc(F)c(Cl)c4)c3n2)CC1 [2(10), 4-[(3-chloro-4-fluorophenyl)amino]-6-[4-[(ethoxycarbonyl)methyl]piperazin-1-yl]pyrimido[5,4-d]pyrimidine]	179 to 182 °C	2.04 µM
CCOC(=O)CCN1CCC(N2CCN(c3ncc4ncnc(Nc5ccc(F)c(Cl)c5)c4n3)CC2)CC1 [2(12), 4-[(3-chloro-4-fluorophenyl)amino]-6-(4-{1-[2-(ethoxycarbonyl)ethyl]piperidin-4-yl}piperazin-1-yl)pyrimido[5,4-d]pyrimidine]		0.81 µM
CCOC(=O)CN1CCC(CCNc2ncc3ncnc(Nc4ccc(F)c(Cl)c4)c3n2)CC1 [2(13), 4-[(3-chloro-4-fluorophenyl)amino]-6-(2-{1-[(ethoxycarbonyl)methyl]piperidin-4-yl}ethylamino)pyrimido[5,4-d]pyrimidine]	128 to 130 °C	1.03 µM
CCOC(=O)C1CCN(CCNc2ncc3ncnc(Nc4ccc(F)c(Cl)c4)c3n2)CC1 [2(14), 4-[(3-chloro-4-fluorophenyl)amino]-6-{2-[4-(ethoxycarbonyl)piperidin-1-yl]ethylamino}pyrimido[5,4-d]pyrimidine]	137 to 139 °C	1.15 µM
COC(=O)CCN(C)C1CCN(c2ncc3ncnc(Nc4ccc(F)c(Cl)c4)c3n2)CC1 [2(15), 4-[(3-chloro-4-fluorophenyl)amino]-6-(4-{N-[2-(methoxycarbonyl)ethyl]-N-methylamino}piperidin-1-yl)pyrimido[5,4-d]pyrimidine]		1.76 µM
COC(=O)CN1CCC(Nc2ncc3ncnc(Nc4cccc(Br)c4)c3n2)CC1 [2(17)]	144 °C	0.03 µM
COC(=O)CN(C)CC1CCN(c2ncc3ncnc(Nc4ccc(F)c(Cl)c4)c3n2)CC1 [2(19), 4-[(3-chloro-4-fluorophenyl)amino]-6-[4-({N-[(methoxycarbonyl)methyl]-N-methylamino}methyl)piperidin-1-yl]pyrimido[5,4-d]pyrimidine]		0.129 µM
COC(=O)CN1CCC(Nc2ncc3ncnc(Nc4cccc(Cl)c4)c3n2)CC1 [2(23), 4-[(3-chlorophenyl)amino]-6-({1-[(methoxycarbonyl)methyl]piperidin-4-yl}amino)pyrimido[5,4-d]pyrimidine]	129 °C	0.025 µM
COC(=O)CN1CCC(Nc2ncc3ncnc(Nc4cccc(C)c4)c3n2)CC1 [2(24), 4-[(3-methylphenyl)amino]-6-({1-[(methoxycarbonyl)methyl]piperidin-4-yl}amino)pyrimido[5,4-d]pyrimidine]	164 °C	0.073 µM
COC(=O)CN1CCC(Nc2ncc3ncnc(Nc4cc(Cl)c(N)c(Cl)c4)c3n2)CC1 [2(26), 4-[(4-amino-3,5-dichlorophenyl)amino]-6-({1-[(methoxycarbonyl)methyl]piperidin-4-yl}amino)pyrimido[5,4-d]pyrimidine]	218 °C	0.021 µM
COC(=O)CN1CCC(Nc2ncc3ncnc(Nc4cc(Br)c(N)c(Br)c4)c3n2)CC1 [2(27), 4-[(4-amino-3,5-dibromophenyl)amino]-6-({1-[(methoxycarbonyl)methyl]piperidin-4-yl}amino)pyrimido[5,4-d]pyrimidine]	167 °C	0.077 µM
CCOC(=O)CN(CC(=O)OCC)[C@H]1CC[C@H](Nc2ncc3ncnc(Nc4ccc(F)c(Cl)c4)c3n2)CC1 [3(4), 4-[(3-chloro-4-fluorophenyl)amino]-6-[(trans-4-{N,N-bis-[(ethoxycarbonyl)methyl]amino}cyclohex-1-yl)amino]pyrimido[5,4-d]pyrimidine]		0.058 µM
COC(=O)CN(CC(=O)OC)[C@H]1CC[C@H](Nc2ncc3ncnc(Nc4ccc(F)c(Cl)c4)c3n2)CC1 [3(5), 4-[(3-chloro-4-fluorophenyl)amino]-6-[(trans-4-{N,N-bis-[(methoxycarbonyl)methyl]amino}cyclohex-1-yl)amino]pyrimido [5,4-d]pyrimidine]		0.02 µM
COC(=O)CN[C@H]1CC[C@H](Nc2ncc3ncnc(Nc4ccc(F)c(Cl)c4)c3n2)CC1 [3(10), 4-[(3-chloro-4-fluorophenyl)amino]-6-[(trans-4-{[(methoxycarbonyl)methyl]amino}cyclohex-1-yl)amino]pyrimido[5,4-d]pyrimidine]		0.016 µM
COC(=O)C(C(=O)OC)N1CCC(Nc2ncc3ncnc(Nc4cccc(Br)c4)c3n2)CC1 [3(16)]		0.02 µM
COC(=O)CN1CCCC(Nc2ncc3ncnc(Nc4cccc(Br)c4)c3n2)C1 (centres unmarked) [3(17), 4-[(3-bromophenyl)amino]-6-({1-[(methoxycarbonyl)methyl]piperidin-3-yl}amino)pyrimido[5,4-d]pyrimidine]		0.017 µM
COC(=O)C(C(=O)OC)N1CCC(Nc2ncc3ncnc(Nc4ccc(F)c(Cl)c4)c3n2)CC1 [3(18)]		0.04 µM
CCOP(=O)(CN1CCC(Nc2ncc3ncnc(Nc4cccc(Br)c4)c3n2)CC1)OCC [4(1), 4-[(3-bromophenyl)amino]-6-({1-[(diethoxyphosphoryl)methyl]piperidin-4-yl}amino)pyrimido[5,4-d]pyrimidine]		0.04 µM
CCOP(C)(=O)CN1CCC(Nc2ncc3ncnc(Nc4cccc(Br)c4)c3n2)CC1 (centres unmarked) [4(2), 4-[(3-bromophenyl)amino]-6-[(1-{[(ethoxy)(methyl)phosphoryl]methyl}piperidin-4-yl)amino]pyrimido [5,4-d]pyrimidine]		0.04 µM
